ChEMBL document CHEMBL1201862, “PubChem BioAssay data set” (2004)
Activity calls are given as the source filed them.

Assays:
Aminopeptidase N = target: T1, Aminopeptidase N (Plasmodium falciparum FcB1/Columbia, UniProt O96935); test: malaria alanyl aminopeptidase activity blockers – biochemical, fluorogenic H-Leu-NHMec substrate, 1536-well (AID 1445); set-up: species or system Plasmodium falciparum 3D7, 3D7
T1 sequence (O96935 whole entry): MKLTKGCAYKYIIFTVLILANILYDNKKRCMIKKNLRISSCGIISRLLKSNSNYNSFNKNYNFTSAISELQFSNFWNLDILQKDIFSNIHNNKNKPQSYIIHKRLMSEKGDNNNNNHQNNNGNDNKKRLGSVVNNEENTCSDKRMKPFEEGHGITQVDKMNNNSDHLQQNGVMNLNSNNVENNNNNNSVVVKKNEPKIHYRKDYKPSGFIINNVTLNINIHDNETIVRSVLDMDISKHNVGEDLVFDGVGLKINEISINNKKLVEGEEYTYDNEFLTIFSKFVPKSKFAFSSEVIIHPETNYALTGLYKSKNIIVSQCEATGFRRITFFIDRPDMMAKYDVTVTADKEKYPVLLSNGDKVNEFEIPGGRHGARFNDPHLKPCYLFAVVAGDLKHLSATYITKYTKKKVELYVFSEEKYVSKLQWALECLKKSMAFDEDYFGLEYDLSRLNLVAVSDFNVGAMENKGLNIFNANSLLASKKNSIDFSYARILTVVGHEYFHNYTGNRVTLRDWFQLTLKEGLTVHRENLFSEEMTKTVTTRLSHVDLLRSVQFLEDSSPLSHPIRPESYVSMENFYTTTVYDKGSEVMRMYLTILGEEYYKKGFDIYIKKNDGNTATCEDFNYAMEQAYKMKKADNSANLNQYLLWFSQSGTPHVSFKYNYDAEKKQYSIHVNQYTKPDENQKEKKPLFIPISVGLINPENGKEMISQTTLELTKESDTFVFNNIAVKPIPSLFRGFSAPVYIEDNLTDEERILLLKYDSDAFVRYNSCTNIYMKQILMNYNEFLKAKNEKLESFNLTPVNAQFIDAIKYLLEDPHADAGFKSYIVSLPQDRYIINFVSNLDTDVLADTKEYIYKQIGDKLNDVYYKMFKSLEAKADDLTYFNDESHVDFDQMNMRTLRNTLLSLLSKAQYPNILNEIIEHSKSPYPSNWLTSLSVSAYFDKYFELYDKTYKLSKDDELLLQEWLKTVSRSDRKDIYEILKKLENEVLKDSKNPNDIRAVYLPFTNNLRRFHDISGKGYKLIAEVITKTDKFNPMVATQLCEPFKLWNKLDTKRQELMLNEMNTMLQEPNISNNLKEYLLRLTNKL

[1] = target: Glyceraldehyde-3-phosphate dehydrogenase (Homo sapiens, UniProt P04406)
[2] = HIV-1 AD8 envelope cell-cell fusion blockers – cherry-pick, dose response (AID 652062); assay type: functional, cell-based;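 further: luciferase signal from cell-cell fusion driven by HIV-1 clade B AD8 Env; potency is for inhibitors of fusion seen as a drop in luminescence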
[3] = blockers of HIV-1 ZM109 envelope-driven cell-cell fusion – HeLa effector, CEM target cells, luciferase, cherry-pick, dose response (AID 652058); assay type: functional, cell-based;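 further: luciferase signal from HIV-1 Env mediated cell-cell fusion of effector and target cells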
[4] = blockers of HIV-1 envelope-mediated cell-cell fusion – cherry-pick, dose response (AID 652057); assay type: functional, cell-based
[5] = OVCAR8 cell viability loss – plate reader, dry powder samples, PAX8 project, dose response (AID 743197); assay type: functional, cell-based; details: OVCAR-8
Paired box protein Pax-8 = Paired box protein Pax-8 (Homo sapiens, UniProt Q06710); test: PAX8 transcriptional activity inhibition in RMG-I – RMG-I cells, luciferase, cherry-pick, dose response (AID 687027); assay type: functional, cell-based;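 further: luciferase reporter driven by Pax8 target thyroperoxidase promoter measured by SteadyGlo luminescence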
[6] = target: DNA dC->dU-editing enzyme APOBEC-3G (Homo sapiens, UniProt Q9HC16); test: Dose Response confirmation of small molecule APOBEC3G DNA Deaminase Inhibitors via a fluorescence-based single-stranded DNA deaminase assay. [Related pubchem assays (depositor defined):AID493012, AID493028]; assay type: functional
cells = assay type: functional
BJ [7] = test: BJ-TERT fibroblast viability loss – cell-based, RAS-independent, luminescence, dose response (AID 1933); assay type: functional; details: Homo sapiens
BJ [8] = test: cells; assay type: functional, cell-based; details: Homo sapiens
Protein RecA = target: T2, Protein RecA (Mycobacterium tuberculosis, UniProt P9WHJ3); test: Fluorescence Cell-Free Homogeneous Dose Retest to Identify Inhibitors of RecA-Intein Splicing Activity. [Related pubchem assays (depositor defined):AID2097, AID2223, AID489010, AID492950]; assay type: functional
T2 sequence (P9WHJ3 whole entry): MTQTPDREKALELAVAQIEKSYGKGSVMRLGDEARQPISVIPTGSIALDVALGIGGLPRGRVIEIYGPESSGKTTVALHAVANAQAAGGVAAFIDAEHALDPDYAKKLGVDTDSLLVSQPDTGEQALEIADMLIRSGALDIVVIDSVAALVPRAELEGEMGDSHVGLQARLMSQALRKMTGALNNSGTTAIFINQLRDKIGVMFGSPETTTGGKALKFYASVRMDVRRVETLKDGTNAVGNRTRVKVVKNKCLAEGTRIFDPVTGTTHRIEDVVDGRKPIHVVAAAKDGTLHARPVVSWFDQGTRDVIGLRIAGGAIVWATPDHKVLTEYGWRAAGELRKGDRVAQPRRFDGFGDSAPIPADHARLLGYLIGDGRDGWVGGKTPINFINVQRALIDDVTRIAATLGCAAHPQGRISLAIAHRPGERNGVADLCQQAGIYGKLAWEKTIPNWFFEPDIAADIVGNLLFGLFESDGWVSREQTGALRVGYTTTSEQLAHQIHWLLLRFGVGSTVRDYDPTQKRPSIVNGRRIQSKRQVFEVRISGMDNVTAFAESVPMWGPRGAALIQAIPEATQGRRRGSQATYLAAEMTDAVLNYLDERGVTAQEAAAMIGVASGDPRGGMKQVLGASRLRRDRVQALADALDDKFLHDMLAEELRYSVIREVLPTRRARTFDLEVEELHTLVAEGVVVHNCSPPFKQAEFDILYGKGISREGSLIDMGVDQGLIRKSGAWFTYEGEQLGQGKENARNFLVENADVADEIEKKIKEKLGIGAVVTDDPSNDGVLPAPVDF

[9] = target: T3, Replicative DNA helicase DnaB (Mycobacterium tuberculosis, UniProt P9WMR3); test: DnaB intein splicing inhibitors, dose response, biochemical, cell-free fluorescence (AID 449749); assay type: functional
T3 sequence (P9WMR3 whole entry): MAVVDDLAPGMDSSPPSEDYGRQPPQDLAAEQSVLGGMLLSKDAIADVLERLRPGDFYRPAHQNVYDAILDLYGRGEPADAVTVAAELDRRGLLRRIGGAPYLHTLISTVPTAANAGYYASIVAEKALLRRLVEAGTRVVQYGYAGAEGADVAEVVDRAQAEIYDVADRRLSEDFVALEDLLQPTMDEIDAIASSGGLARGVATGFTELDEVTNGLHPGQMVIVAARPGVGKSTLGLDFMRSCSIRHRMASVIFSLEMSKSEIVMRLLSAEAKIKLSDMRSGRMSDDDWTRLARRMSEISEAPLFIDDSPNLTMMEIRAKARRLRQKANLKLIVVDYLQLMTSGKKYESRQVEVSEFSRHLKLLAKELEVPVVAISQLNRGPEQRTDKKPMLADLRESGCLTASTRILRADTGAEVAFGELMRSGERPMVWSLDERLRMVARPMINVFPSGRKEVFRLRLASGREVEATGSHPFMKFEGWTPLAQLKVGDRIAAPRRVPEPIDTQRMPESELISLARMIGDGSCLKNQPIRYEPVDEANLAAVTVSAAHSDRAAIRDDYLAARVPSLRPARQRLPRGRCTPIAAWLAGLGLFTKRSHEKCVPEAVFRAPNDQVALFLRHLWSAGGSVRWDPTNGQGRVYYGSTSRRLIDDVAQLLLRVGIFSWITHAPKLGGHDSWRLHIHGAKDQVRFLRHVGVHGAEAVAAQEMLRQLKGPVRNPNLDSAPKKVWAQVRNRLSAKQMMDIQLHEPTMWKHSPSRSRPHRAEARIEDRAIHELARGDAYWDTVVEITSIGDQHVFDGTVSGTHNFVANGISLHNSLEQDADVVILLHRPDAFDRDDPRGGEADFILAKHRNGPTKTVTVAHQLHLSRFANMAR

BJ [10] = test: BJ-TERT-LT-ST fibroblast viability loss – cell-based, RAS-independent, luminescence, dose response (AID 1935); assay type: functional; details: Homo sapiens;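 further: BJ fibroblasts immortalized with TERT plus LT and ST oncogenes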
[11] = DRD fibroblast viability loss – cell-based, non-viral oncogenic, luminescence, dose response (AID 1934); assay type: functional; details: Homo sapiens
[12] = microbe, parasite or virus in culture; assay type: functional; details: Mycobacterium tuberculosis
[13] = THP-1 cell cytotoxicity, dose response, cytotoxicity control for non-replicating M. tuberculosis project (AID 489025); assay type: functional
[14] = NIH-3T3 fibroblast cytotoxicity, dose response, cytotoxicity control, cell-based, fluorescence, Alamar Blue, secondary assay (AID 2327); assay type: functional;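 further: NIH-3T3 mouse fibroblasts cultured with fluconazole at 8 µg/mL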
[15] = alpha-synuclein stem-loop luciferase translation blockers – H4 neuroglioma cells, luminescence, confirmation (AID 1988); assay type: functional, cell-based
INS1 = test: INS-1E survival protection against cytokine death – cell-based, luminescence, retest, dose response (AID 449756); assay type: functional; details: Rattus norvegicus;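 further: cell death triggered by IL-1 beta plus TNF-alpha plus IFN-gamma mixture; protective hits raise ATP signal compared with cytokine alone wells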
[16] = fluconazole-exposed Candida albicans growth modulators – fluorescence, retest, confirmation (AID 2467); assay type: functional, cell-based
[17] = luciferase reporter signal suppression in cells – H4 neuroglioma cells, luminescence, dose response (AID 1990); assay type: functional, cell-based
[18] = Luminescence Cell-Based Dose Response HTS to Identify Inhibitors of 5'UTR Stem-Loop Driven Prion Protein mRNA Translation in H4 Neuroglioblastoma Cells. [Related pubchem assays: 1827 (Project Summary), 1813 (Primary HTS)]; assay type: functional
Estrogen receptor beta = Estrogen receptor beta (Homo sapiens, UniProt Q92731);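 further: recombinant ER-beta bound to coactivator SRC1 peptide in presence of estradiol agonist; inhibitors block coactivator peptide binding and lower the FRET signal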
Estrogen receptor beta, sequence (Q92731 whole entry): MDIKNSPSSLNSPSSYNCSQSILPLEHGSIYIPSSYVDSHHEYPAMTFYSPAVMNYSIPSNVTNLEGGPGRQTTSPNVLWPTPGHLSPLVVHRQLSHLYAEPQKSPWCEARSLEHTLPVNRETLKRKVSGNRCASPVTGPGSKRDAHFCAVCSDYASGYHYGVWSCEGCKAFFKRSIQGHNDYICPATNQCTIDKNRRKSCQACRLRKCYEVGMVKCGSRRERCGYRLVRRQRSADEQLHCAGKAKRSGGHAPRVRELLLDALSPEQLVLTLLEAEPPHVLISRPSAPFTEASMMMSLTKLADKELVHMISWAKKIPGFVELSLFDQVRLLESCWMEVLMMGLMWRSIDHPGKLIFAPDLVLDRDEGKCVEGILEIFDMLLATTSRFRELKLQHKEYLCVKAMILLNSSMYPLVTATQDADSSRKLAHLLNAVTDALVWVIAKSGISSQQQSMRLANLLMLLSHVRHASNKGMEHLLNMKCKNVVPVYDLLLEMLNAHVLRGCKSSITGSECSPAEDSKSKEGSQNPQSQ

Glyceraldehyde-3-phosphate dehydrogenase, sequence (P04406 whole entry, the tested form may be a part): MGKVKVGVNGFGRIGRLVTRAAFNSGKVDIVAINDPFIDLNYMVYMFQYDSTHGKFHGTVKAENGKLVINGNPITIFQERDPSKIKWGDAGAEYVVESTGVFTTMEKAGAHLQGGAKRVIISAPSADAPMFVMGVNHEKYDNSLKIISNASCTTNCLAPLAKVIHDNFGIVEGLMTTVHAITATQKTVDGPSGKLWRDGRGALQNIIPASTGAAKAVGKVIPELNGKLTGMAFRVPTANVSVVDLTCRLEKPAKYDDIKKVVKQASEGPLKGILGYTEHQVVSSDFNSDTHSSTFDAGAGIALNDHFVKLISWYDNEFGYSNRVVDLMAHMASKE
DNA dC->dU-editing enzyme APOBEC-3G, sequence (Q9HC16 whole entry): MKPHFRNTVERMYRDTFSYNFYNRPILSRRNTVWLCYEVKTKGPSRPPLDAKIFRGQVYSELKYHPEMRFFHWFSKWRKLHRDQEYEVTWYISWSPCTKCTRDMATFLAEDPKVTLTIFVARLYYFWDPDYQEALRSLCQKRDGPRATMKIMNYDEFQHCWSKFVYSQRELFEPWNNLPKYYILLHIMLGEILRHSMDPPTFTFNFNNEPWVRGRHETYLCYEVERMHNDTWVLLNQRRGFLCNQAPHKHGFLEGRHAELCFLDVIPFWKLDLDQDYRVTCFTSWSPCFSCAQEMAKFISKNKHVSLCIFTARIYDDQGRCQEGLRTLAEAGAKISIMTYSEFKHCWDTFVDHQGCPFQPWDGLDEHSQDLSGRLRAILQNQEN
Paired box protein Pax-8, sequence (Q06710 whole entry): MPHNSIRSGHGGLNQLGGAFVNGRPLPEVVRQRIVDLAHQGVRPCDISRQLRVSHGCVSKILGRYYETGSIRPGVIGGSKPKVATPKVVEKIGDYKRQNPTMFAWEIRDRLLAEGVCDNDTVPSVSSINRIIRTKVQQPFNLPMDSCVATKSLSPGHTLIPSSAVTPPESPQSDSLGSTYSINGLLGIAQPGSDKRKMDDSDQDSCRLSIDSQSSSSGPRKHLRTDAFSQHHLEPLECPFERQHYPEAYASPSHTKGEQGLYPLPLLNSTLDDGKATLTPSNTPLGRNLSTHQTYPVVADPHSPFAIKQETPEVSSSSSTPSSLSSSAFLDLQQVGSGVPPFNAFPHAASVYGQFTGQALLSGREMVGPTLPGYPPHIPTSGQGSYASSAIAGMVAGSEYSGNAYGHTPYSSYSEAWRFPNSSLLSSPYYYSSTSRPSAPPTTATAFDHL

SMILES: Cc1noc(NS(=O)(=O)c2ccc(NC(=O)CSc3nnc(-c4ccccc4)n3C3CCCCC3)cc2)c1C
- IC50 (Aminopeptidase N): 75.9 µM (active)

SMILES: O=C(O)c1cc(NS(=O)(=O)c2cccc3cccnc23)ccc1O
- IC50 [1]: > 100 µM (not active)

SMILES: O=C(C[C@H]1C[C@@H]2c3cc(NS(=O)(=O)c4ccc(F)cc4)ccc3O[C@@H]2[C@@H](CO)O1)NCc1ccc(-c2ccccc2)cc1
- AC50 [2]: 19.4 µM (active)
- AC50 [3]: 9.89 µM (active)
- AC50 [4]: 23.1 µM (active)
- AC50 [5]: 4 µM (active)
- AC50 (Paired box protein Pax-8): 7.31 µM (active)

SMILES: Cc1csc(NC(=O)CSCC(=O)O)c1-c1nc2ccccc2s1
- IC50 (Aminopeptidase N): 7.09 µM (active)

SMILES: O=C(NCCCO)c1cc(-c2ccc(Cl)cc2Cl)n[nH]1
- IC50 [1]: > 10 µM (inconclusive)

SMILES: Oc1nc(-c2ccncc2)nc2ccccc12
- IC50 [6]: 44.8 µM (active)

SMILES: CC(C)(C)NC(=O)C(=O)NNC(=O)COc1ccc(Br)cc1
- IC50 (Aminopeptidase N): 619 µM (active)
- IC50 (cells): 17.9 µM (active)

SMILES: O=C(NCc1cccs1)C1CCN(S(=O)(=O)c2ccccc2F)CC1
- IC50 (Aminopeptidase N): 51 µM (active)

SMILES: O=C(NC1CCCC1)C(c1ccc(F)cc1)N(Cc1ccccc1Cl)C(=O)CCl (centres undefined)
- EC50 (BJ [7]): 5.5 µM (active)
- EC50 (BJ [8]): 14.8 µM (active)
- EC50 (Protein RecA): 0.215 µM (active)
- AC50 [9]: > 380 µM (inactive)
- EC50 (BJ [10]): > 150 µM (inconclusive)
- EC50 [11]: 8.7 µM (active)

SMILES: C=C1CCC[C@]2(C)C[C@H]3OC(=O)C(CNC(C)CCCC(C)C)[C@H]3CC12 (some centres undefined)
- CC50 [12]: 27 µM (active)
- IC50 (cells): 30.6 µM (active)
- CC50 [13]: 22.1 µM (active)

SMILES: COc1c(/C=N/Nc2ccc([N+](=O)[O-])cc2[N+](=O)[O-])c(C)nn1-c1ccccc1
- EC50 (BJ [7]): 7.99 µM (active)
- EC50 (BJ [8]): > 150 µM (not active)
- EC50 (BJ [10]): > 150 µM (inconclusive)
- EC50 [11]: 15.8 µM (active)

SMILES: COc1ccc(-[n+]2c(-c3ccccc3)cc(-c3ccccc3)cc2-c2ccccc2)cc1.[O-][Cl+3]([O-])([O-])[O-]
- EC50 [14]: 40.7 µM (active)
- EC50 (BJ [7]): 11.7 µM (inconclusive)
- EC50 (BJ [8]): 14.1 µM (active)
- EC50 [15]: 17.9 µM (active)
- AC50 (INS1): 1.33 µM (active)
- EC50 (BJ [10]): > 150 µM (inconclusive)
- EC50 [16]: 0.046 µM (active)
- EC50 [17]: 11 µM (active)
- EC50 [11]: 14.1 µM (active)
- EC50 [18]: > 120 µM (not active)

SMILES: COc1ccc(Cn2nnnc2C(c2ccccc2OC)N2CCC(C(N)=O)CC2)cc1 (centres undefined)
- IC50 (Estrogen receptor beta): > 50 µM (not active)

SMILES: N#C/C(=C\c1c(N2CCC(C(N)=O)CC2)nc2ccccn2c1=O)S(=O)(=O)c1ccccc1
- IC50 (Estrogen receptor beta): > 50 µM (not active)

SMILES: CC(=O)NC(=S)NNC(=O)COc1ccc(Br)cc1
- IC50 (Aminopeptidase N): 2.57 µM (active)
